Source: patent US5948792A, “Fluorine-containing 1,4-disubstituted piperidine derivatives” (Banyu Pharmaceutical Co., Ltd., priority 1996, dated 1999)
pKi: −log10 of the molar value.

Key:
Muscarinic M3 Receptor [1] = assay: Bronchodilation in dogs (p.o.), methacholine provocation test; assay type: in vivo, dog; settings: beagle dogs, 1 mg/kg p.o., 4 hours after administration
Procedure: (§1) Tests for Antagonism Against Muscarinic M3 Receptor (in vivo)
2) Tests for Bronchodilation in Dogs (p.o.)
Twelve- to twenty-four-months-old male beagle dogs (weighing 10-15 kg) were anesthetized with pentobarbital (30 mg/kg, i.v.) and intubated in their bronchus. Their airway sensitivity to inhaled methacholine were measured at least twice at two-weeks interval, and the dogs showing a reproducible methacholine reaction threshold values^1) ware selected. To those dogs whose methacholine reaction threshold value had been confirmed, the test compounds were orally administered (1 mg/kg). Four hours after the administration, the methacholine provocation test was conducted, and then the methacholine reaction threshold value^2) after administration of the test compound was obtained.
The bronchodilator activity of the test compound was determined following equation: [formula]
The methacholine provocation test was conducted using Astograph TCK-6100H Model (Chest). Methacholine chloride was used as bronchoconstritor, which was diluted with isotonic sodium chloride solution in 10-grade concentration levels starting from 40,000 μg/ml, as 20,000, 10,000, 5,000, 2,500, 1,250, 625, 312.5, 156 and 78 μg/ml. These methacholine aerosols were inhaled to the test animal each for 1 min, starting from the lowest concentration level, and respiration resistance was continuously recorded. The concentration level at which the respiration resistance reached twice the initial value was recorded as the methacholine threshold value.

Muscarinic M3 Receptor [2] = target: T1, Muscarinic M3 Receptor (Rattus norvegicus, UniProt P08483); assay: Bronchodilation in rats (p.o.), inhibition of acetylcholine-induced increase in airway resistance; assay type: in vivo; settings: po, 1 h, acetylcholine 50 μg/kg i.v. 60 minutes after test compound, read-out: Inhibition of Airway Contraction ED50 po
T1 construct: male rats of the Sprague-Dawley strain; from tissue; host or cells: airways of living male Sprague-Dawley rats (in vivo)
T1 sequence (P08483 whole entry): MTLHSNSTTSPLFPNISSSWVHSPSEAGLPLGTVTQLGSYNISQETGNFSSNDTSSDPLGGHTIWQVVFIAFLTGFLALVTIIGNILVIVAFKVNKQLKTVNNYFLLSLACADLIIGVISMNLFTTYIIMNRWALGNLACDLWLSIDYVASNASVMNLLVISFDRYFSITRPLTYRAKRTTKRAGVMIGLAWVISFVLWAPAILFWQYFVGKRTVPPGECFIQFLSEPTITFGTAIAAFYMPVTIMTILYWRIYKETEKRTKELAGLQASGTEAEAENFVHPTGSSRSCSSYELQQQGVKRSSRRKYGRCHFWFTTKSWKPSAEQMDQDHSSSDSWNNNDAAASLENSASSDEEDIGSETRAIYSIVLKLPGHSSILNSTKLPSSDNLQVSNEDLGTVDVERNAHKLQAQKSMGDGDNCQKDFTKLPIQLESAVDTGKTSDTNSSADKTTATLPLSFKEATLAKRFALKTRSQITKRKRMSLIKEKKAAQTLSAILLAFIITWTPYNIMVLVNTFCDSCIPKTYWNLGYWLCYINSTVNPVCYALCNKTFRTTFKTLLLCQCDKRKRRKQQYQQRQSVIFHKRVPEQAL
Procedure: as §1
1-B) Tests for Bronchodilation in Rats (p.o.)
Eight- to eleven-weeks-old male rats of Sprague-Dawley strain weighing 380-420 g were orally administered with a test compound. The rats were treated in the identical manner as in the i.v. test, starting 30 minutes after the administration, and their airway resistance values were measured. The acetylcholine-(50 μg/kg, i.v.) induced airway resistance increase were measured 60 minutes after the administration of test compounds. In controls, isotonic sodium chloride solution was used in place of the test compounds and otherwise identical procedures were repeated, the ratio between the two airway resistance values whereby being set to be 100%.

Muscarinic M3 receptor [3] = target: T2, Muscarinic M3 receptor (Homo sapiens, UniProt P20309); assay: Inhibition of binding of [3H]-N-methylscopolamine to muscarinic M3 receptor
T2 construct: purchased Receptor Biology, Inc; host or cells: CHO cells (membranes)
T2 sequence (P20309 whole entry): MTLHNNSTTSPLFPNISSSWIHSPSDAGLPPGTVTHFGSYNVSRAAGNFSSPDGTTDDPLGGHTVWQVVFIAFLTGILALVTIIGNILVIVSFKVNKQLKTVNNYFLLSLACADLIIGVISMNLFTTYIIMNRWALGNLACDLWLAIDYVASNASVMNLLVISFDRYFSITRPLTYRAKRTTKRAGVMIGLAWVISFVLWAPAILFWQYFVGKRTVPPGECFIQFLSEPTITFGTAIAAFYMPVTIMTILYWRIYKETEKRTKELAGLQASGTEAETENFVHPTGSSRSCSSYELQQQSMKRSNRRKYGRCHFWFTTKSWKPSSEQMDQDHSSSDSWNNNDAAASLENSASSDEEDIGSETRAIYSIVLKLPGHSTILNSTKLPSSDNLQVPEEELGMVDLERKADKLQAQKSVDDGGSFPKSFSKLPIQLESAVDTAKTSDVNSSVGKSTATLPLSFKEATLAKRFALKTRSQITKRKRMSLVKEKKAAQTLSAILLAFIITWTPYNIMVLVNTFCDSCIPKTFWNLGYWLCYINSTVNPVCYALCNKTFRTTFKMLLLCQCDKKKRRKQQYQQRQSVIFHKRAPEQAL
Procedure: (§2) Tests on Inhibition of Binding to Muscarinic Receptors
(§3) These tests were performed according to a modification of the method of Hargreaves et al. (Br. J. Pharmacol. 107: 494-501, 1992). Membranes from CHO cells expressing cloned human m1-m5 (Receptor Biology, Inc.) were incubated with 0.2 nM [^3 H]-N-methylscopolamine and each a compound of the present invention to be tested in 0.5 ml of 50 mM Tris-HCl-10 mM MgCl2 -1 mM EDTA (pH 7.4) for 2 hours at 25° C. Free and membrane-bound [^3 H]-N-methylscopolamine were separated by filtration over glass filters (UniFilter-GF/C; Packard Instruments Co., Inc.) using cell harvester (Filtermate™ 196; Packard Instruments Co., Inc.). Then the filter was washed four times with 1 ml of ice-cold Tris-HCl (pH 7.4) and dried at 50° C. After adding a scintillator (Microscinti 0; Packard Instruments Co., Inc.), the radioactivity was counted by a liquid scintillation counter (TopCount™; Packard Instruments Co., Inc.). Non-specific binding was measured in the presence of 1 μM N-methylscopolamine.

Muscarinic M2 receptor = target: T3, Muscarinic M2 receptor (Homo sapiens, UniProt P08172); assay: Inhibition of binding of [3H]-N-methylscopolamine to muscarinic M2 receptor; settings: CHO cell membranes expressing cloned human receptor; 0.2 nM [3H]-N-methylscopolamine, pH 7.4, 2 hours, 25° C; read-out: Ki M2 (inhibitory effects on binding to muscarinic M2 receptor)
T3 construct: purchased Receptor Biology, Inc; host or cells: CHO cells (membranes)
T3 sequence (P08172 1-466): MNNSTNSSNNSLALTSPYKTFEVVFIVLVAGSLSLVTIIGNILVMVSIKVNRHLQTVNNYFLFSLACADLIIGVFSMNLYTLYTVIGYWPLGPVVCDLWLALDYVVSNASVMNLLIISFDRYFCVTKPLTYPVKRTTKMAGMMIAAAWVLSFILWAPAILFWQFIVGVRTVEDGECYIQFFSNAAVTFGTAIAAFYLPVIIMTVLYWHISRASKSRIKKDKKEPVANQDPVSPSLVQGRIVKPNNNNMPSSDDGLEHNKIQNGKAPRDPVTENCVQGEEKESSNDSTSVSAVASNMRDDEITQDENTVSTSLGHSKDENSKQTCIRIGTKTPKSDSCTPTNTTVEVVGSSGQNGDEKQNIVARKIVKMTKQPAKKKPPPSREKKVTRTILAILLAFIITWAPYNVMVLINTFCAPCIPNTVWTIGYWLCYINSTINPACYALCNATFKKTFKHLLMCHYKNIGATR
Procedure: as §2, §3

Structure (SMILES)	Methacholine Inhalation-inducing Test shift value (after 4 hrs.) (Muscarinic M3 Receptor [1])	ED50 (Muscarinic M3 Receptor [2]) [mg/kg]	pKi (Muscarinic M3 receptor [3]; CHO cell membranes expressing cloned human receptor, 0.2 nM [3H]-N-methylscopolamine, pH 7.4, 2 hours, 25° C, read-out: Ki M3 (inhibitory effects on binding to muscarinic M3 receptor))	M2/M3 (ratio of binding Ki) (Muscarinic M3 receptor [3]; selectivity ratio of Ki values, binding)	pKi (Muscarinic M2 receptor)
Cl.Cl.Nc1cccc(CN2CCC(NC(=O)[C@](O)(c3ccccc3)[C@@H]3CCC(F)(F)C3)CC2)n1 [Example 20, (2R)-N-[1-(6-aminopyridin-2-ylmethyl)piperidin-4-yl]-2-[(1R)-3,3-difluorocyclopentyl]-2-hydroxy-2-phenylacetamide dihydrochloride]	> 69	0.37	8.52	180	6.26
O=C(NC1CCN(Cc2ccsc2)CC1)[C@](O)(c1ccccc1)[C@@H]1CCC(F)(F)C1 [Example 11, (2R)-N-[1-(3-thienylmethyl)piperidin-4-yl]-2-[(1R)-3,3-difluorocyclopentyl]-2-hydroxy-2-phenylacetamide]	21	0.22	–	–	6.34
